# Results reported in US20260007712A1, “COMPOSITION FOR PREVENTING, AMELIORATING OR TREATING PERIODONTAL DISEASES” (NUTRACORE CO., LTD., priority 2022, published 2026).
# Assays:
# Type in all cases: in vivo
# [1] = system: infiltrating inflammatory cells in gingival tissue; experiment: Number of infiltrating inflammatory cells in gingival tissue, EPD rat model; settings: EPD rats; extracts 200 mg/kg, IND 5 mg/kg, oral once daily for 10 days; FIG. 5
# Excerpt: (§1) In this study, as part of the development of functional food ingredients derived from natural products to improve periodontitis and periodontal bone damage, three types of natural product extracts, dried rehmanniae radix, wasabi leaf, and Sancho extracts, that are well known for various physiological activities, including anti-inflammatory and antioxidant effects were compared and explored using a tooth neck ligation rat periodontal disease (experimental periodontitis; EPD) model to investigate the efficacy against periodontitis and periodontal bone loss.
# (§2) Specifically, a total of 121 SPF/VAF Outbred Crl:CD [SD] male rats (OrientBio, Seungnam, Korea) were obtained, and after acclimatization for 7 days, experimental animals with a constant body weight were selected, and 10 animals per group were divided and tested in 7 groups below (normal medium control group: average 248.90±8.23 g, 236.00˜261.00 g; EPD-induced group: average 248.14±9.85 g, 219.00˜272.00 g). […]
# (§3) Daily body weight was measured from 1 day before ligation, periodontal bone loss rate was measured on the final sacrifice day, some gingival tissue was extracted, changes in IL-1β, TNF-α, and MDA content were observed. The number of infiltrating inflammatory cells in the gingival tissue, periodontal bone volume (alveolar bone volume), and collagen content in the gums were measured.
# [2] = system: periodontal bone loss (alveolar bone loss); experiment: Periodontal bone loss rate, tooth neck ligation rat periodontal disease (EPD) model; settings: EPD rats; extracts 200 mg/kg, IND 5 mg/kg, oral once daily for 10 days from 24 h after ligation; FIG. 3
# Excerpt: as §1, §2, §3
# [3] = system: periodontal bone mass (alveolar bone volume); experiment: Periodontal bone mass (alveolar bone volume), EPD rat model; settings: EPD rats; extracts 200 mg/kg, IND 5 mg/kg, oral once daily for 10 days; FIG. 4
# Excerpt: as §1, §2, §3
# IL-1β = IL-1β content in gingival tissue, EPD rat model; settings: EPD rats; extracts 200 mg/kg, IND 5 mg/kg, oral once daily for 10 days; top of FIG. 7
# Excerpt: as §1, §2, §3
# [4] = system: collagen fibers in gingival tissue; experiment: Collagen fiber content in gingival tissue, EPD rat model; settings: EPD rats; extracts 200 mg/kg, IND 5 mg/kg, oral once daily for 10 days; FIG. 6
# Excerpt: as §1, §2, §3
# TNF-α = TNF-α content in gingival tissue, EPD rat model; settings: EPD rats; extracts 200 mg/kg, IND 5 mg/kg, oral once daily for 10 days; bottom of FIG. 7
# Excerpt: as §1, §2, §3
# MDA = MDA content in gingival tissue, EPD rat model; settings: EPD rats; extracts 200 mg/kg, IND 5 mg/kg, oral once daily for 10 days; FIG. 8
# Excerpt: as §1, §2, §3
compound,measurement,setting,value
"COc1ccc2c(c1)c(CC(=O)O)c(C)n2C(=O)c1ccc(Cl)cc1 [IND, Indomethacin]",change in number of infiltrating inflammatory cells in gingival tissue compared to the EPD control group,[1],−57.61%
same,change in periodontal bone loss rate compared to the EPD control group,[2],−26.49%
same,change in periodontal bone mass compared to the EPD control group,[3],188.14%
same,change in IL-1β content in gingival tissue compared to the EPD control group,IL-1β,−54.75%
same,change in proportion of collagen fibers in gingival tissue compared to the EPD control group,[4],148.65%
same,change in TNF-α content in gingival tissue compared to the EPD control group,TNF-α,−50.46%
same,change in MDA content in gingival tissue compared to the EPD control group,MDA,−42.44%
